Patent US20140193843A1 (Institut Pasteur, priority 2008, published 2014)
No end group written: not given here.

Key:
[1] = tested on: anti-YQRFSR antibody 3RBF-SAB; assay: Competitive ELISA immuno-assay for Opiorphin; assay type: binding, rabbit; settings: at 500 ng/ml final concentration
Description: Y represents the antibody directed against Sialorphin.
The peptide was coated on the plastic support of the micro-titration plate (96-well-ImmunoPlate, Nunc).
Inter-assay variability was less than 10%.

[2] = tested on: acute mechanical pain; settings: rat, pin-pain test, compared with morphine; cited from earlier work

Row | Substance | recognition by the antibody (specificity of the immuno-assay) [1] | pain-suppressive potency [2]
1 | QHNPR (Sialorphin; UniProt P13432 29-33, looked up) | not recognized | –
2 | QRFSR [Opiorphin, QRFSR] | – | as effective as morphine
